Assay results reported in ChEMBL document CHEMBL2169878 (J Med Chem, 2012).
Calls of active or inactive are those of the source. No cut-off for these calls is given here.

What was measured:
[1] = system: Plasmodium berghei; test: Antimalarial activity against Plasmodium berghei ANKA expressing GFP infected in mouse assessed as cure from infection at 30 mg/kg, po administered QD for 3 days measured on day 30; assay type: functional, organism-based; set-up: dose 30 mg/kg
[2] = system: Plasmodium berghei; test: Antimalarial activity against Plasmodium berghei ANKA expressing GFP infected in mouse assessed as mean survival days at 30 mg/kg, po administered at 6,[…],[…] and 72 hrs post-infection (reference value: 6 to 7 days); assay type: functional

**Q.** How did the Activity [1] turn out when `Clc1ccc(C(Nc2ccnc3cc(Cl)ccc23)c2ccc(CN3CCNCC3)cc2)cc1` (racemic) was run?
**A.** The Activity was “inactive”.

**Q.** What about the MSD [2] of the same compound?
**A.** Its MSD is 30 days.
